Measured values: ChEMBL document CHEMBL1150906, “Cytotoxic and insecticidal constituents of the unripe fruit of Persea americana” (J Nat Prod, 1998)
In brackets after ≈: the same amount, converted by molar mass.

Columns and labels:
A549 = assay: Cytotoxicity against human A549 cells by MTT assay; type: functional, cell-based
MCF7 = assay: Cytotoxicity against human MCF7 cells by MTT assay; type: functional, cell-based
HT-29 = assay: Cytotoxicity against human HT-29 cells by MTT assay; type: functional, cell-based
A498 = assay: Cytotoxicity against human A498 cells by MTT assay; type: functional, cell-based
PC-3 = assay: Cytotoxicity against human PC3 cells by MTT assay; type: functional, cell-based
MIA PaCa-2 = assay: Cytotoxicity against human MIAPaCa2 cells by MTT assay; type: functional, cell-based
[1] = Toxicity in Artemia salina; type: organism-based; details: in vivo
Aedes aegypti = assay: Insecticidal activity against yellow fever mosquito larvae […] in bovine liver powder after 4 days by MES assay; type: functional; details: 96 h

| Structure (SMILES) | IC50 (A549) [µg/mL] | IC50 (MCF7) [µg/mL] | IC50 (HT-29) [µg/mL] | IC50 (A498) [µg/mL] | IC50 (PC-3) [µg/mL] | IC50 (MIA PaCa-2) [µg/mL] | LC50 [1] [µg/mL] | LC50 (Aedes aegypti) [µg/mL] |
| --- | --- | --- | --- | --- | --- | --- | --- | --- |
| CCCCCCCCCCCCCCCC(O)CC(O)CO (stereo unspecified) | 3 (≈ 9.48 µM) | 3.2 (≈ 10.1 µM) | 3 (≈ 9.48 µM) | 2.7 (≈ 8.53 µM) | 1.2 (≈ 3.79 µM) | > 10 | 2.8 (≈ 8.85 µM) | 1.8 (≈ 5.69 µM) |
| C=CCCCCCCCCCCCC(O)CC(O)CO (stereo unspecified) [AVOCADENE] | 3.4 (≈ 11.9 µM) | 4.4 (≈ 15.4 µM) | 2.6 (≈ 9.08 µM) | 3.6 (≈ 12.6 µM) | 0.46 (≈ 1.61 µM) | 5.3 (≈ 18.5 µM) | 1.3 (≈ 4.54 µM) | 0.21 (≈ 0.733 µM) |
| C#CCCCCCCCCCCCC(O)CC(O)CO (stereo unspecified) [AVOCADYNE] | 4.8 (≈ 16.9 µM) | 6.5 (≈ 22.9 µM) | 8.9 (≈ 31.3 µM) | 4.1 (≈ 14.4 µM) | 0.061 (≈ 0.214 µM) | > 10 | 0.64 (≈ 2.25 µM) | 0.077 (≈ 0.271 µM) |
| COc1cccc2c1C(=O)c1c(O)c3c(c(O)c1C2=O)C[C@@](O)(C(=O)CO)C[C@@H]3O[C@H]1C[C@H](N)[C@H](O)[C@H](C)O1 [DOXORUBICIN] | 0.0022 (≈ 0.00405 µM) | 0.081 (≈ 0.149 µM) | 0.0053 (≈ 0.00975 µM) | 0.0049 (≈ 0.00902 µM) | 0.011 (≈ 0.0202 µM) | 0.0024 (≈ 0.00442 µM) |  |  |
| C=C(C)[C@H]1Cc2c(ccc3c2O[C@@H]2COc4cc(OC)c(OC)cc4[C@@H]2C3=O)O1 [ROTENONE] |  |  |  |  |  |  |  | 0.75 (≈ 1.9 µM) |
